Laboratory results taken from ChEMBL document CHEMBL4483862, “Open-source discovery of chemical leads for next-generation chemoprotective antimalarials” (2018).

Tested on: Plasmodium berghei
Assay: Luciferase/luciferin-expressing antifolate-resistant parasites were used to infect a culture of HepG2 cells that were pre-incubated with compounds. Infected hepatocytes emit light due to the luciferase reaction. Assay results are presented as the percent inhibition of light emission compared to control. […]
Assay type: functional
Settings: sporozoite; for IC90: read-out: LUCIFERASE INFECTION ASSAY - IC90

Oc1cc(C(F)(F)F)nc2c(C(F)(F)F)cccc12
IC50 (FFLUC_HILL_SLOPE 0.264, FFLUC_R_SQUARED 0.18, PBLUC_HILL_SLOPE 9.49, PBLUC_R_SQUARED 0.416, read-out: LUCIFERASE INFECTION ASSAY - IC50): 4.09 µM
IC90: 5.16 µM

Cc1noc(-c2ccc(Cl)cc2)c1C(=O)ON=C(N)c1ccc(C(C)(C)C)cc1
IC50 (FFLUC_HILL_SLOPE 0.0669, FFLUC_R_SQUARED 0.264, read-out: LUCIFERASE INFECTION ASSAY - IC50): > 8.01 µM
IC90: > 8.01 µM

COc1ccc(NC(=O)C2Cc3c(-c4cccc(C(C)=O)c4)ccnc3O2)cc1OC (stereo not given)
IC50 (FFLUC_HILL_SLOPE 0.226, FFLUC_R_SQUARED 0.216, HEPG2TOX_HILL_SLOPE 3.1, HEPG2TOX_R_SQUARED 0.695, PBLUC_HILL_SLOPE 3.79, PBLUC_R_SQUARED 0.351, read-out: LUCIFERASE INFECTION ASSAY - IC50): 4.93 µM
IC90: > 7.89 µM

CC1(C(=O)NCc2cccs2)Cc2c(-c3ccccc3)ccnc2O1 (stereo not given)
IC50 (FFLUC_HILL_SLOPE 0.144, FFLUC_R_SQUARED 0.18, HEPG2TOX_HILL_SLOPE 3.88, HEPG2TOX_R_SQUARED 0.701, PBLUC_HILL_SLOPE 8.35, PBLUC_R_SQUARED 0.0479, read-out: LUCIFERASE INFECTION ASSAY - IC50): 7.82 µM
IC90: > 9.42 µM

N#CC(=C1NS(=O)(=O)c2ccccc21)c1nc(C23CC4CC(CC(C4)C2)C3)cs1
IC50 (FFLUC_HILL_SLOPE 0.216, FFLUC_R_SQUARED 0.688, PBLUC_HILL_SLOPE 0.978, PBLUC_R_SQUARED 0.875, read-out: LUCIFERASE INFECTION ASSAY - IC50): 0.208 µM
IC90: 1.97 µM

O=C(N/N=C/c1c(-c2ccccc2)nc2sc3c(n12)CCCC3)c1ccc(Br)cc1
IC50 (FFLUC_HILL_SLOPE 0.19, FFLUC_R_SQUARED 0.758, PBLUC_HILL_SLOPE 1.28, PBLUC_R_SQUARED 0.573, read-out: LUCIFERASE INFECTION ASSAY - IC50): 1.51 µM
IC90: 8.36 µM

CCCCNC(=O)c1c(NC(=O)c2ccc(F)c(F)c2)nc2ccc(C)cn12
IC50 (FFLUC_HILL_SLOPE 0.0723, FFLUC_R_SQUARED 0.0194, HEPG2TOX_HILL_SLOPE 0.765, HEPG2TOX_R_SQUARED 0.862, PBLUC_HILL_SLOPE 1.87, PBLUC_R_SQUARED 0.784, read-out: LUCIFERASE INFECTION ASSAY - IC50): 1.09 µM
IC90: 3.54 µM

OC(c1cc(F)c(F)c(F)c1)c1nnc(Nc2ccc(F)c(Cl)c2)s1 (stereo not given)
IC50 (FFLUC_HILL_SLOPE 0.27, FFLUC_R_SQUARED 0.307, PBLUC_HILL_SLOPE 3.7, PBLUC_R_SQUARED 0.113, read-out: LUCIFERASE INFECTION ASSAY - IC50): 8.96 µM
IC90: > 10 µM

CCOC(=O)c1sc(-c2ccccc2)cc1NC(=O)COC(=O)c1c2c(nc3ccccc13)CCC(C)C2 (stereo not given)
IC50 (FFLUC_HILL_SLOPE 0.238, FFLUC_R_SQUARED 0.508, read-out: LUCIFERASE INFECTION ASSAY - IC50): > 10 µM
IC90: > 10 µM

CCc1cccc2c(C(=O)COC(=O)c3ccc(S(C)(=O)=O)c([N+](=O)[O-])c3)c[nH]c12
IC50 (FFLUC_HILL_SLOPE 0.275, FFLUC_R_SQUARED 0.382, HEPG2TOX_HILL_SLOPE 0.775, HEPG2TOX_R_SQUARED 0.837, PBLUC_HILL_SLOPE 46.1, PBLUC_R_SQUARED 0.262, read-out: LUCIFERASE INFECTION ASSAY - IC50): 6.27 µM
IC90: 6.57 µM

CC(C)NC(=O)c1c(NC(=O)c2ccc(Cl)cc2Cl)nc2ccccn12
IC50 (FFLUC_HILL_SLOPE 0.259, FFLUC_R_SQUARED 0.0893, HEPG2TOX_HILL_SLOPE 15, HEPG2TOX_R_SQUARED 0.814, PBLUC_HILL_SLOPE 11.2, PBLUC_R_SQUARED 0.466, read-out: LUCIFERASE INFECTION ASSAY - IC50): 3.1 µM
IC90: 3.78 µM

CCC(C)NC(=O)c1c(NC(=O)c2cccc(F)c2)nc2ccc(C)cn12 (stereo not given)
IC50 (FFLUC_HILL_SLOPE 0.281, FFLUC_R_SQUARED 0.0242, HEPG2TOX_HILL_SLOPE 2.05, HEPG2TOX_R_SQUARED 0.911, PBLUC_HILL_SLOPE 3.14, PBLUC_R_SQUARED 0.667, read-out: LUCIFERASE INFECTION ASSAY - IC50): 1.45 µM
IC90: 2.91 µM

Cc1cc(-c2cn3c(-c4cccc(O)c4)cnc3cn2)cc(C)c1O
IC50 (FFLUC_HILL_SLOPE 0.138, FFLUC_R_SQUARED 0.042, HEPG2TOX_HILL_SLOPE 1.55, HEPG2TOX_R_SQUARED 0.983, PBLUC_HILL_SLOPE 3.3, PBLUC_R_SQUARED 0.553, read-out: LUCIFERASE INFECTION ASSAY - IC50): 6.94 µM
IC90: > 9.96 µM

O=[N+]([O-])c1cc(C(F)(F)F)ccc1Sc1nnc(-c2ccc(Cl)cc2)[nH]1
IC50 (FFLUC_HILL_SLOPE 0.154, FFLUC_R_SQUARED 0.106, read-out: LUCIFERASE INFECTION ASSAY - IC50): > 8.23 µM
IC90: > 8.23 µM

Clc1ccc(-n2nnnc2Sc2ncnc3sc4c(c23)CCC4)cc1
IC50 (FFLUC_HILL_SLOPE 0.273, FFLUC_R_SQUARED 0.315, read-out: LUCIFERASE INFECTION ASSAY - IC50): > 10 µM
IC90: > 10 µM

N#CC1(c2ccccc2)C/C(=C\c2cccs2)C(=O)/C(=C/c2cccs2)C1 (stereo not given)
IC50 (FFLUC_HILL_SLOPE 0.232, FFLUC_R_SQUARED 0.325, read-out: LUCIFERASE INFECTION ASSAY - IC50): > 10 µM
IC90: > 10 µM

COc1ccc(CC2(Cc3ccc(OC)c(F)c3)C(=O)N(c3ccccc3C)C(=O)c3ccccc32)cc1F
IC50 (FFLUC_HILL_SLOPE 0.212, FFLUC_R_SQUARED 0.0258, read-out: LUCIFERASE INFECTION ASSAY - IC50): > 10 µM
IC90: > 10 µM

CC(C)N1C(=O)/C(=N\NC(=S)Nc2cccnc2)c2ccccc21
IC50 (FFLUC_HILL_SLOPE 0.241, FFLUC_R_SQUARED 0.177, HEPG2TOX_HILL_SLOPE 1.23, HEPG2TOX_R_SQUARED 0.88, PBLUC_HILL_SLOPE 2.27, PBLUC_R_SQUARED 0.476, read-out: LUCIFERASE INFECTION ASSAY - IC50): 1.9 µM
IC90: 5.01 µM

Cc1ccc2nc(NC(=O)c3ccccc3)c(C(=O)NC3CCCCC3)n2c1
IC50 (FFLUC_HILL_SLOPE 0.276, FFLUC_R_SQUARED 0.15, HEPG2TOX_HILL_SLOPE 1.74, HEPG2TOX_R_SQUARED 0.886, PBLUC_HILL_SLOPE 12, PBLUC_R_SQUARED 0.694, read-out: LUCIFERASE INFECTION ASSAY - IC50): 2.66 µM
IC90: 3.2 µM

CCOC(=O)c1cc(-c2ccccc2)sc1NC(=O)CSc1nnc(-c2ccc(C(C)(C)C)cc2)n1-c1ccccc1
IC50 (FFLUC_HILL_SLOPE 0.186, FFLUC_R_SQUARED 0.0278, read-out: LUCIFERASE INFECTION ASSAY - IC50): > 10 µM
IC90: > 10 µM

Cc1cccc(-c2cc(NC=O)c3ncc(-c4ccc(S(C)(=O)=O)cc4)n3c2)c1
IC50 (FFLUC_HILL_SLOPE 0.295, FFLUC_R_SQUARED 0.0341, HEPG2TOX_HILL_SLOPE 11.3, HEPG2TOX_R_SQUARED 0.289, read-out: LUCIFERASE INFECTION ASSAY - IC50): > 8.14 µM
IC90: > 8.14 µM

COc1ccc(CNc2nc(C)nc3scc(-c4ccccc4)c23)cc1
IC50 (FFLUC_HILL_SLOPE 0.195, FFLUC_R_SQUARED 0.119, HEPG2TOX_HILL_SLOPE 2.5, HEPG2TOX_R_SQUARED 0.976, PBLUC_HILL_SLOPE 4.55, PBLUC_R_SQUARED 0.142, read-out: LUCIFERASE INFECTION ASSAY - IC50): 4.24 µM
IC90: 6.87 µM

NCc1cccc(-c2cc(-c3cc(C(F)(F)F)cc(C(F)(F)F)c3)cnc2N)c1
IC50 (FFLUC_HILL_SLOPE 0.255, FFLUC_R_SQUARED 0.011, PBLUC_HILL_SLOPE 2.95, PBLUC_R_SQUARED 0.223, read-out: LUCIFERASE INFECTION ASSAY - IC50): 7.98 µM
IC90: > 8.02 µM

CC(C)(C)C(=O)CC(=O)Nc1ccc(C(F)(F)F)cc1
IC50 (FFLUC_HILL_SLOPE 0.143, FFLUC_R_SQUARED 0.0864, PBLUC_HILL_SLOPE 0.817, PBLUC_R_SQUARED 0.0775, read-out: LUCIFERASE INFECTION ASSAY - IC50): > 11.5 µM
IC90: > 11.5 µM

Cc1cc(C)cc(C(=O)N(C)CC(=O)N2CCCC2)c1
IC50 (FFLUC_HILL_SLOPE 0.201, FFLUC_R_SQUARED 0.0577, read-out: LUCIFERASE INFECTION ASSAY - IC50): > 10 µM
IC90: > 10 µM

COc1ccc(CNC(=O)N(C)CCOc2ccc(OC)cc2)cc1
IC50 (FFLUC_HILL_SLOPE 0.273, FFLUC_R_SQUARED 0.253, HEPG2TOX_HILL_SLOPE 16.5, HEPG2TOX_R_SQUARED 0.443, PBLUC_HILL_SLOPE 9.82, PBLUC_R_SQUARED 0.776, read-out: LUCIFERASE INFECTION ASSAY - IC50): 8.44 µM
IC90: > 10 µM

OCc1cccc(-c2cnc3cnc(-c4ccc(CNc5ccccc5)cc4)cn23)c1
IC50 (FFLUC_HILL_SLOPE 0.18, FFLUC_R_SQUARED 0.146, PBLUC_HILL_SLOPE 3.27, PBLUC_R_SQUARED 0.516, read-out: LUCIFERASE INFECTION ASSAY - IC50): 6.25 µM
IC90: > 8.12 µM

COc1ccccc1NS(=O)(=O)c1ccc(NNC(=S)Nc2cc(C)cc(C)c2)c([N+](=O)[O-])c1
IC50 (FFLUC_HILL_SLOPE 0.289, FFLUC_R_SQUARED 0.0194, HEPG2TOX_HILL_SLOPE 0.191, HEPG2TOX_R_SQUARED 0.347, PBLUC_HILL_SLOPE 3.05, PBLUC_R_SQUARED 0.49, read-out: LUCIFERASE INFECTION ASSAY - IC50): 5.73 µM
IC90: > 10 µM

N#C/C(=C\c1sccc1Oc1ccccc1)S(=O)(=O)c1ccc(C(F)(F)F)cn1
IC50 (FFLUC_HILL_SLOPE 0.259, FFLUC_R_SQUARED 0.0664, read-out: LUCIFERASE INFECTION ASSAY - IC50): > 7.56 µM
IC90: > 7.56 µM

COc1ccc(N(CCC(N)=O)C(=O)CSc2nc3ccccc3n2-c2ccc(OC)cc2)cc1
IC50 (FFLUC_HILL_SLOPE 0.23, FFLUC_R_SQUARED 0.0771, read-out: LUCIFERASE INFECTION ASSAY - IC50): > 10 µM
IC90: > 10 µM
